The text below walks through data of patent US20100069668A1, “5-[(2R)-[2-[2-(2,2,2-TRIFLUOROETHOXY)PHENOXY]ETHYL]AMINO]PROPYL]-2-METHOXYBENZENESULFONAMIDE” (priority 2006, published 2010).

Counter-ions that a name gives are not always drawn.

Experiment [1] has as its system α1 receptor. Put plainly: antagonism of norepinephrine-induced contraction of isolated vas deferens smooth muscle. It counts as cell-based. The settings on record: isolated rat vas deferens. As to the method:
(§1) The antagonism and antagonistic selectivity of α1 receptor of different isolated smooth muscle specimens treated with the compound having formula (I).
(§2) Methods: a 24-hour fasting rat was hit on the head to induce coma, and quickly dissected the abdominal cavity, its urethra, aorta and vas deferens were respectively taken out and recorded the contraction curve with instruments, then the different concentrations and volumes of norepinephrine were added to get noradrenalin's accumulation curve, rinsed immediately to return to baseline, then different concentrations of test drugs were added. Noradrenaline was added repeatedly after 5˜8 minute to obtain average contractile response curve of noradrenalin under different concentrations of antagonist, the contraction pD2 of noradrenaline on the urethra, aorta, vas deferens under different concentrations of samples for test was calculated, the pA2 value for antagonism of contraction caused by the samples against norepinephrine was obtain by regressing with the concentration of test samples and pD2.
(§3) Results: pA2 value for the contraction of the different organizations inhibition of smooth muscle specimens induced by the hydrochlorate of compound I and tamsulosin hydrochloride against norepinephrine is shown in Table 1. […]

The subject of experiment [2] is α1 receptor. Put plainly: antagonism of norepinephrine-induced contraction of isolated urethra smooth muscle. It counts as cell-based, rat. The settings on record: for pA2 for antagonism of norepinephrine-induced contraction, urethra: isolated rat urethra; for the intensity ratio of the contraction caused by inhibiting norepinephrine, urethra/aorta / the intensity ratio of the contraction caused by inhibiting norepinephrine, urethra/vas deferens: calculated by pA2 value. As to the method: as §1, §2
Results: pA2 value for the contraction of the different organizations inhibition of smooth muscle specimens induced by the hydrochlorate of compound I and tamsulosin hydrochloride against norepinephrine is shown in Table 1. The intensity ratio of contraction inhibitive effect of urethra and aorta, urethra and vas deferens smooth muscle, caused by the sample against noradrenaline is disclosed in table 2, which is calculated by pA2 value.

In experiment [3] the test system is α1 receptor. Description: antagonism of norepinephrine-induced contraction of isolated aorta smooth muscle. The settings on record: isolated rat aorta. It counts as cell-based. As to the method: as §1, §2, §3

For `CCOc1ccccc1OCCN[C@H](C)Cc1ccc(OC)c(S(N)(=O)=O)c1` [Tamsulosin hydrochloride], in experiment [1], the “pA2 value for the contraction caused by inhibiting norepinephrine, vas deferens” value was determined as 10.12. Further, in experiment [2], the “pA2 for antagonism of norepinephrine-induced contraction, urethra” value is on record as 9.22; the “the intensity ratio of the contraction caused by inhibiting norepinephrine, urethra/aorta” value is given as 3.83; the “the intensity ratio of the contraction caused by inhibiting norepinephrine, urethra/vas deferens” value is 0.123. For the same compound, the “pA2 value for the contraction caused by inhibiting norepinephrine, aorta” value in experiment [3] came out at 8.63.
Regarding `COc1ccc(C[C@@H](C)NCCOc2ccccc2OCC(F)(F)F)cc1S(N)(=O)=O` [the hydrochlorate of compound I, 5-[(2R)-[2-[2-[2-(2,2,2-trifluoroethoxy)phenoxy]ethyl]amino]propyl]-2-methoxybenzenesulfonamide], the “pA2 value for the contraction caused by inhibiting norepinephrine, vas deferens” value in experiment [1] worked out at 10.08. Besides, in experiment [2], the “pA2 for antagonism of norepinephrine-induced contraction, urethra” value is on record as 11.00; the “the intensity ratio of the contraction caused by inhibiting norepinephrine, urethra/aorta” value was 607.31; the “the intensity ratio of the contraction caused by inhibiting norepinephrine, urethra/vas deferens” value was 8.120. The “pA2 value for the contraction caused by inhibiting norepinephrine, aorta” value in experiment [3] came out at 8.21.
